# Measurements reported in publication PMC12006171, “Marsupial cathelicidins: characterization, antimicrobial activity and evolution in this unique mammalian lineage” (Frontiers in Immunology, 2025).
# Where two headings read alike, the source gives them in different places.
# How the values were obtained:
# [1] = system: six bacteria (S. aureus, E. coli, P. aeruginosa; ATCC and clinical isolate); parameters: method as in 4 sources, ref Peel et al 2016 ||| ref Peel et al 2021 ||| ref Wang et al 2011 ||| ref Peel et al 2017; settings: cited from earlier work
# [2] = system: three fungi (Candida krusei, Candida parapsilosis, Candida albicans); parameters: method as in 4 sources, ref Peel et al 2016 ||| ref Peel et al 2021 ||| ref Wang et al 2011 ||| ref Peel et al 2017; settings: cited from earlier work
# [3] = system: six bacteria (S. aureus, E. coli, P. aeruginosa; ATCC and clinical isolate); format: cell-based; settings: broth microdilution screening, phase I or II; Y/N summary over the bacteria tested; synthesized mature peptide
# Method: Antimicrobial testing of 78 cathelicidin MPs was performed in two phases as outlined in Figure 1 . In phase I, 40 peptides (27 extant and 13 ancestral) were selected for testing based on rank (outlined above) and similarity to published marsupial cathelicidins with known antimicrobial activity ([33], [41]–[43]). These peptides were tested against nine bacteria (Staphylococcus aureus ATCC 29213 and clinical isolate, Escherichia coli ATCC 25922 and clinical isolate, Pseudomonas aeruginosa ATCC 27853 and clinical isolate, Streptococcus agalactiae ATCC 12386 and clinical isolate, Streptococcus pneumoniae ATCC 49619) and three fungi (Candida krusei ATCC 6258, Candida parapsilosis ATCC 22019, and Candida albicans clinical isolate). Details regarding these strains are available in Supplementary Table 4 . The antimicrobial activity of cathelicidins was determined as the minimum inhibitory concentration (MIC), which was the lowest concentration of cathelicidin that prevented visible bacterial or fungal growth, relative to the negative control. […] Minimum bactericidal concentration (MBC) and/or minimum fungicidal concentration (MFC) was conducted to determine microbicidal versus static action. Activity against S. aureus ATCC, E. coli ATCC, and Pseudomonas aeruginosa ATCC 27853 was examined in the presence of divalent cations to determine the impact of inhibitors.
# In phase II, the remaining 38 peptides (37 extant and one ancestral) were tested against six bacteria (S. aureus ATCC and clinical isolate, E. coli ATCC and clinical isolate, and P. aeruginosa ATCC and clinical isolate). […] No further testing on phase II peptides was performed. Detailed methods for all assays are provided in subsequent sections.
# Antimicrobial activity was determined using a broth microdilution susceptibility assay in 96 well polypropylene plates according to Clinical Laboratory Standards Institute guidelines M07-A and M26A as described previously ([33], [42], [43]). The bacterial and fungal isolates from humans and animals used in this study are outlined in Supplementary Table 4 . Only yeasts were included in the panel of fungi as they have been used in the susceptibility testing of eutherian ([3], [81]–[83]) and other marsupial cathelicidins previously ([33], [42], [43]). Cathelicidin mature peptides were solubilized in DMSO and serially diluted in duplicate from 128-0.25μg/mL in a final volume of 100µL. For bacteria, cathelicidins were diluted in Mueller Hinton Broth (MHB) with or without 10% lysed horse blood, and with (MH II B) or without (MHB) calcium and magnesium cations. For fungi, cathelicidins were diluted in Roswell Park Memorial Institute medium (RPMI)-1640 MOPS. Ampicillin or tetracycline were included as a positive control for Gram-positive and -negative bacteria respectively, while amphotericin B was used for fungi. A media-only negative control and growth control (no cathelicidin) were also included on each plate. Bacteria were sub-cultured on Muller Hinton agar (MHA) or sheep blood agar (BA), and fungi on Sabouraud dextrose agar (SAB), 20–24 hours prior to the test. Colonies were suspended in saline, the concentration adjusted to a 0.5 McFarland standard, and then diluted in media to a concentration of 1.0 x 10^6 cells/mL. Then, 100μL was added to each well of the cathelicidin dilution plate, giving a final inoculum density of 5 x 10^5 CFU/mL and cathelicidin concentration of 64-0.125μg/mL. Colony counts were performed on MHA/BA/SAB to confirm inoculum density. All plates were incubated at 35°C for 20–24 hours, depending on the strain.
# Colonies were counted and compared to the colony count of the starting inoculum.
# [4] = mature peptide, Y/N summary from earlier study, ref Peel et al 2016
# [5] = mature peptide, Y/N summary from earlier study, ref Peel et al 2017
# [6] = mature peptide (MP), Y/N summary, ref Peel et al 2017
# [7] = mature peptide, Y/N summary from earlier study, ref Wang et al 2011
sequence,measurement,setting,value
TFKRKNGSRKNGHRPGGYSLIALGNKKVLKAPYMESI [SahaCath2],Antibacterial (MIC <64ug/mL),[1]; [4],N (Peel et al 2016) (Antibacterial (MIC <64ug/mL))
same,Antifungal (MIC <64ug/mL),[2]; [4],N (Peel et al 2016) (Antifungal (MIC <64ug/mL))
PGRKKGSKRHKPGSYSVIALGKPGVKKSPYMEAL [MaeuCath8],Antibacterial (MIC <64ug/mL),[1]; [5],N (Peel et al 2017) (Antibacterial (MIC <64ug/mL))
same,Antifungal (MIC <64ug/mL),[2]; [5],N (Peel et al 2017) (Antifungal (MIC <64ug/mL))
FRKLRNIFSRGRDDKE [MagiCath4],Antibacterial (MIC <64ug/mL),[3],N (Antibacterial (MIC <64ug/mL))
VSESISHGIPKAISAVNKLIKKKKKGATTPRVK [ModoCath6],Antibacterial (MIC <64ug/mL),[1]; [6],N (Peel et al 2017) (Antibacterial (MIC <64ug/mL))
same,Antifungal (MIC <64ug/mL),[2]; [6],N (Peel et al 2017) (Antifungal (MIC <64ug/mL))
LKKIFGSIVKKAVSKGVAEGLKAVDEARKAEKKGKK [ModoCath1],Antibacterial (MIC <64ug/mL),[1]; [6],N (Peel et al 2017) (Antibacterial (MIC <64ug/mL))
same,Antifungal (MIC <64ug/mL),[2]; [6],N (Peel et al 2017) (Antifungal (MIC <64ug/mL))
TPELFRSRRSPLPGRKKGSKRPKPGSYSVIALGKPGLKKAPYMEAL [LahiCath1],Antibacterial (MIC <64ug/mL),[3],N (Antibacterial (MIC <64ug/mL))
KRMGIFHLFWAGLRKLGNLIKNKIQQGIENFLG [SahaCath3],Antibacterial (MIC <64ug/mL),[1]; [4],N (Peel et al 2016) (Antibacterial (MIC <64ug/mL))
same,Antifungal (MIC <64ug/mL),[2]; [4],Y (Peel et al 2016) (Antifungal (MIC <64ug/mL))
SKTKRRSLLKRLGDGIRGFWNGFRGRK [ModoCath4],Antibacterial (MIC <64ug/mL),[1]; [6],Y (Peel et al 2017) (Antibacterial (MIC <64ug/mL))
same,Antifungal (MIC <64ug/mL),[2]; [6],Y (Peel et al 2017) (Antifungal (MIC <64ug/mL))
KRGLWESLKRKATKLGDDIRNTLRNFKIKFPVPRQG [MaeuCath2*],Antibacterial (MIC <64ug/mL),[1]; [7],Y (Wang et al 2011) (Antibacterial (MIC <64ug/mL))
same,Antifungal (MIC <64ug/mL),[2]; [7],Y (Wang et al 2011) (Antifungal (MIC <64ug/mL))
PKQKNGSKNRRFRIGGYTMISMKQPRVQKAPYMEAL [ModoCath9],Antibacterial (MIC <64ug/mL),[1]; [6],N (Peel et al 2017) (Antibacterial (MIC <64ug/mL))
same,Antifungal (MIC <64ug/mL),[2]; [6],N (Peel et al 2017) (Antifungal (MIC <64ug/mL))
GEKVKTRFIAAIEKLIDTFLP [MaeuCath3],Antibacterial (MIC <64ug/mL),[1]; [5],N (Peel et al 2017) (Antibacterial (MIC <64ug/mL))
same,Antifungal (MIC <64ug/mL),[2]; [5],N (Peel et al 2017) (Antifungal (MIC <64ug/mL))
KREDFLDQIIRDFRNFIYQKYRRLRDEFRKLRDILSG [SahaCath4],Antibacterial (MIC <64ug/mL),[1]; [4],N (Peel et al 2016) (Antibacterial (MIC <64ug/mL))
same,Antifungal (MIC <64ug/mL),[2]; [4],N (Peel et al 2016) (Antifungal (MIC <64ug/mL))
KRGFGKKLRKRLKKFRNSIKKRLKNFNVVIPIPLPG [MaeuCath1],Antibacterial (MIC <64ug/mL),[1]; [7],Y (Wang et al 2011) (Antibacterial (MIC <64ug/mL))
same,Antifungal (MIC <64ug/mL),[2]; [7],Y (Wang et al 2011) (Antifungal (MIC <64ug/mL))
